Reference: US11834413B2, “Antiplatelet drugs and uses thereof” (SHANGHAI CUREGENE PHARMACEUTICAL CO., LTD., priority 2020, dated 2023)

Experiments:
platelet aggregation = experiment: Antiaggregatory action in rats: ex vivo ADP-induced platelet aggregation in PRP, turbidimetric aggregometry; design: species or system Male Sprague-Dawley rats; conditions: rat, oral
Protocol: Assay 2: Antiaggregatory Action in Rats
Male Sprague-Dawley rats were used for ex vivo platelet aggregation experiments. After oral administrated with (clopidogrel, exemplary compounds provided herein and vehicle (control)) to rats, blood was collected via jugular vein at 0.5 hour, 1 hour and 2 hour time points, using 3.8% (w/v) sodium citrate solution as an anticoagulant ( 1/9 volume of whole blood). Blood samples with citrate were centrifuged at a low speed of 1000 rmp for 5 min to obtain platelet-rich plasma (PRP). After separation of PRP, the remained blood was further centrifuged at a high speed of 3000 rmp for 10 min to obtain platelet-poor plasma (PPP). The number of platelets in PRP was measured by hematology analyzer (Siemens, ADVIA2120), and adjusted to 4×10^8/mL with PPP.
Platelet aggregation was determined using turbidimetric aggregometry method by an automatic platelet aggregometer (PRECIL LBY-NJ4). The aggregometer was primarily warmed up to 37° C., and PRP (290 μL) sample was added to the cuvette and set in the automatic platelet aggregometer. After a 5 min pre-incubation, calibrated the aggregometer using PPP to representing 100% aggregation and PRP to representing 0% aggregation. Finally, a volume of […] ADP solution (final concentration 10 μM) was added to PRP sample to initial platelet aggregation. Platelet aggregation was monitored for 5 min and maximum platelet aggregation (%) was reported within the duration. Antiaggregatory action of test compounds was expressed as inhibition (%) which determined by the relation: Inhibition (%)=(maximum platelet aggregation (%) of control−maximum platelet aggregation (%) of test compound)/(maximum platelet aggregation (%) of control)*100

[1] = Pharmacokinetic in rats: concentration of the thiol active metabolite in plasma; type: in vivo, Male Sprague-Dawley rats; conditions: for peak concentration of the thiol active metabolite compared with clopidogrel: rat plasma; for release of the active metabolite compared with clopidogrel: rat
Protocol: Assay 1: Pharmacokinetic in Rats
Male Sprague-Dawley rats were used to conduct pharmacokinetic experiment.
Test compounds (clopidogrel and exemplary compounds provided herein) was administrated orally or intravenously to rat under fast condition. Blood samples were collected via jugular vein at 5 min, 15 min, 30 min, 60 min and 120 min time points with EDTA-K2 (anticoagulant), 3′-methoxyphenacyl bromide (MPBr, derivatization reagent) and phenylmethylsulfonyl fluoride (PMSF, stabilizer). Plasma samples were then harvested by centrifuging at 1500 g for 10 min under 2-8° C. and stored at −80° C. after separation. Plasma samples were loaded to a LC-MS/MS instrument after extraction to determine the concentration of the thiol active metabolite.

[2] = after absorption; cited from earlier work
[3] = after a loading dose (600 mg); cited from earlier work

COC(=O)[C@H](c1ccccc1Cl)N1CCC(SCOC(=O)OC(C)C)/C(=C\C(=O)O)C1 (stereo partly drawn) [compound 1b]
inhibition at 2 mg/kg (platelet aggregation; Platelet, 2 mg/kg, ADP 10 μM, read-out: maximum inhibition of platelet aggregation): ~45%
time after administration to maximum inhibition of platelet aggregation (platelet aggregation; 2 mg/kg): 60 min
onset of action and potency compared with clopidogrel (platelet aggregation; 2 mg/kg vs clopidogrel 10 mg/kg): much faster onset of action and much higher potency than clopidogrel
peak concentration of the thiol active metabolite compared with clopidogrel ([1]; oral, dose level 10 mg/kg): significantly higher than that for clopidogrel
release of the active metabolite compared with clopidogrel ([1]; oral, dose level 10 mg/kg): faster and more efficient release of the active metabolite than clopidogrel

CCOC(=O)/C=C1\CN([C@H](C(=O)OC)c2ccccc2Cl)CCC1SCOC(=O)OC(C)C (stereo partly drawn) [compound 2a]
peak concentration of the thiol active metabolite compared with clopidogrel ([1]; oral, dose level 10 mg/kg): significantly higher than that for clopidogrel
release of the active metabolite compared with clopidogrel ([1]; oral, dose level 10 mg/kg): faster and more efficient release of the active metabolite than clopidogrel

COC(=O)[C@H](c1ccccc1Cl)N1CCc2sccc2C1 [clopidogrel, Clopidogrel]
inhibition at 10 mg/kg (platelet aggregation; Platelet, 10 mg/kg, ADP 10 μM, read-out: maximum inhibition of platelet aggregation): ~45%
time after administration to maximum inhibition of platelet aggregation (platelet aggregation; 10 mg/kg): about 120 minutes
fraction hydrolysed by esterases into an inactive carboxylic acid [2]: 85%
fraction undergoing two-step oxidation via hepatic cytochrome P450 isoenzymes, mainly CYP2C19 [2]: 15%
onset of action [3]: 2 h

COC(=O)OCSC1CCN([C@H](C(=O)OC)c2ccccc2Cl)C/C1=C/C(=O)O (stereo partly drawn) [compound 3]
release of the active metabolite compared with clopidogrel ([1]; oral 2 mg/kg and intravenous 1 mg/kg vs clopidogrel oral 10 mg/kg): faster and more efficient release of the active metabolite than clopidogrel

COC(=O)[C@H](c1ccccc1Cl)N1CCC(SCOC(=O)OC(C)C)/C(=C/C(=O)O)C1 (stereo partly drawn) [compound 1a]
peak concentration of the thiol active metabolite compared with clopidogrel ([1]; oral, dose level 10 mg/kg): significantly higher than that for clopidogrel
release of the active metabolite compared with clopidogrel ([1]; oral, dose level 10 mg/kg): faster and more efficient release of the active metabolite than clopidogrel
